Assay [1] has as its target T1, SGLT1 (Homo sapiens, UniProt P13866).
T1 construct: expressed in transfected cells
T1 sequence (P13866 1-664): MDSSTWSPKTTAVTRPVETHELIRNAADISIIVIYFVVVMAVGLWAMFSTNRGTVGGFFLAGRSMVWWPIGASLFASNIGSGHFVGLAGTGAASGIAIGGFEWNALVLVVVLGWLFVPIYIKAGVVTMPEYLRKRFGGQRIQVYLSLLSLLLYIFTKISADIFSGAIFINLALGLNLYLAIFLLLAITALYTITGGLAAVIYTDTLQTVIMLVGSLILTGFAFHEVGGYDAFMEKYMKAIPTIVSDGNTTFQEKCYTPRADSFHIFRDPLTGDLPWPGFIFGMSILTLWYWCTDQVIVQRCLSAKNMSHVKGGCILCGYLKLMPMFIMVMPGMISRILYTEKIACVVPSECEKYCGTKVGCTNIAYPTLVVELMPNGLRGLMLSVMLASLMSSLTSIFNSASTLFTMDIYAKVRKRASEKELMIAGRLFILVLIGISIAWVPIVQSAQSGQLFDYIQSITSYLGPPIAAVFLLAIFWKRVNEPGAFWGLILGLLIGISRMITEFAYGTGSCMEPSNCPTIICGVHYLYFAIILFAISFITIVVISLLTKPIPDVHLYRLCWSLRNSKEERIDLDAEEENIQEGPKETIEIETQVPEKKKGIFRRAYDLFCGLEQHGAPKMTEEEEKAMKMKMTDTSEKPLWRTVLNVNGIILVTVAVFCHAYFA
Put plainly: 14C-AMG uptake in BHK cells transfected with SGLT1 (96-well cell-based assay). Particulars: 50 μM AMG, 37° C., 90 min. The text has this: (§1) The compounds can be tested for their SGLT inhibition properties by means of BHK cells expressing SGLT1 and SGLT2. The production of the cells and the testing can be carried out as described below.
To construct the SGLT1 expression vector (KL225), the SLC5A1 gene (homologous to NM_000343) was amplified from a cDNA library using standard PCR technology and cloned over NheI/XhoI sites into the pcDNA3.1 expression vector (Invitrogen) containing neomycin as a selection marker. In this vector, transcription uses the enhancer/promoter of human cytomegalovirus.
(§2) The final vector KL225 together with an additional vector containing a dihydrofolate reductase gene as a selection marker was introduced into cells. Transfection into BHK21 cells (ATCC CCL-10), cultivated in DMEM medium (GIBCO/BRL), supplemented with 10% foetal calf serum (FCS) and 20 mM glutamine, was carried out using calcium phosphate transfections according to Graham, F. L. and van der Ebb, A. J. (1973), Virology 52: 456 with 5-20 μg of uncut plasmids for 10^7 cells. Stable transfectants were selected in medium containing 1 mg/ml of G418 (GIBCO/BRL) and 20-5000 nM methotrexate as final concentration, where only cells which expressed the neomycin gene and overexpressed the dhfr gene were able to grow. After growth for 2-3 weeks, the cells were cloned (0.5 cells/well) and the clones were investigated for SGLT expression in radioactivity uptake tests.
(§3) The uptake of ^14C-α-methyl-D-glucopyranoside (AMG) in, for example, Xenopus oocytes injected with the corresponding cRNA has been described in principle (for example Wen-Sen Lee et al. (1994), J. Biol. Chem. 269, 12032-12039; Guofeng You et al. (1995), J. Biol. Chem. 270, 29365-29371).
(§4) A 96-well cell-based assay was developed and adapted to HTS requirements:
(§5) BHK cells (transfected with SGLT1 or SGLT2) were seeded into 96-well microtitre plates (Cultureplates, Perkin Elmer). After at least 24 h, medium was removed, and the cell layer was washed with assay buffer (140 mM NaCl, 2 mM KCl, 1 mM CaCl2, 1 mM MgCl2, 10 mM HEPES, 5 mM Tris, adjusted to pH 7.4 using 1 M KOH). After addition of 40 μl of assay buffer, 50 μl of AMG (50 μM for SGLT1 and 2 mM for SGLT2) in the presence or absence of compounds, the cells were incubated in a total volume of 100 μl at 37° C. for 90 min. Supernatant was removed by suction and discarded. Cells were washed and lysed by addition of 50 μl of water. After 10 min at room temperature, 200 μl of Micrsoscint 40 (Perkin Elmer) were added. The radioactivity was counted in a Topcount microplate scintillation counter (Perkin Elmer). The non-specific uptake was determined in sodium-free assay buffer (266 mM sucrose, 2 mM KCl, 1 mM CaCl2, 1 mM MgCl2, 10 mM HEPES, 5 mM Tris, adjusted to pH 7.4 using 1 M KOH).

In assay [2] the target is T2, SGLT2 (Homo sapiens, UniProt P31639).
T2 construct: expressed in transfected cells
T2 sequence (P31639 1-672): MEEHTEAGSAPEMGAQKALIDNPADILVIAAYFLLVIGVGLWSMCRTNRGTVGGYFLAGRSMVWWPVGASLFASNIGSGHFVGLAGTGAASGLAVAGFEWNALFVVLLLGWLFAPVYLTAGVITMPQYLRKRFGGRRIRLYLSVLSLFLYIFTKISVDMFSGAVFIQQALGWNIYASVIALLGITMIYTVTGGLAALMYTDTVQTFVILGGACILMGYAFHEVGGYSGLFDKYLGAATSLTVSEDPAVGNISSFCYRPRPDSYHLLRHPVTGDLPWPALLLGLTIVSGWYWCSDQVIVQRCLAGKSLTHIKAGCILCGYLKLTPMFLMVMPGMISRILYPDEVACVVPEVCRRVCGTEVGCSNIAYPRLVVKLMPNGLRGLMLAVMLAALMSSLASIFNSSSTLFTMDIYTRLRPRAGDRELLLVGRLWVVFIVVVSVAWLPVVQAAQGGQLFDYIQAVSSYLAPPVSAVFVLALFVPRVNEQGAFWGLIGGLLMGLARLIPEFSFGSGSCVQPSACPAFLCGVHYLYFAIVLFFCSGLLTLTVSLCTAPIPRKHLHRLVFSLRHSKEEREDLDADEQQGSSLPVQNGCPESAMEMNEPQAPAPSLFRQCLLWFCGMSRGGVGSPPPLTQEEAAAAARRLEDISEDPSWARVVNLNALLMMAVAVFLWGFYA
Put plainly: 14C-AMG uptake in BHK cells transfected with SGLT2 (96-well cell-based assay). Particulars: 2 mM AMG, 37° C., 90 min.
From the text: as §1
To construct the SGLT2 expression vector (KL224), the SLC5A2 gene (homologous to NM_003041) was amplified from a cDNA library using standard PCR technology and cloned over NheI/XhoI sites into PCI-neo expression vector (Promega) containing neomycin as a selection marker. In this vector, transcription uses the enhancer/promoter of human cytomegalovirus and the SV40 polyadenylation signal.
as §2, with “KL224” for “KL225”
as §3, §4, §5

Molecules are shown by their SMILES.

Broadly, the IC50 is the concentration needed to halve the response being measured. A high value points to a need for much substance.

In the case of `Cc1cccc(C)c1Cn1c(-c2ccccc2OCC(N)=O)nc2ccccc21` [Compound A2, 2-{2-[1-(2,6-dimethylbenzyl)-1H-benzimidazol-2-yl]-phenoxy}acetamide], the concentration for half-maximal inhibition (IC50) in assay [1] was > 10 µM; in assay [2], 0.01 to 1 µM.

Turning to `Cc1cccc(C)c1Cn1c(-c2c(F)cccc2OCC(N)=O)nc2ccccc21` [Compound A3, 2-{2-[1-(2,6-Dimethylbenzyl)-1H-benzimidazol-2-yl]-3-fluorophenoxy}acetamide], the IC50 in assay [2] lay within 0.01 to 1 µM.

In the case of `Cc1cccc(C)c1Cn1c(-c2ccccc2OCC(N)=O)nc2ccc(F)cc21` [Compound A4, 2-{2-[1-(2,6-Dimethylbenzyl)-6-fluoro-1H-benzimidazol-2-yl]phenoxy}acetamide], the IC50 in assay [1] is > 10 µM; in assay [2] it was 0.01 to 1 µM.

For the compound `Cc1cccc(C)c1Cn1c(-c2ccccc2OCC(N)=O)nc2cc(F)c(F)cc21` [Compound A5, 2-{2-[1-(2,6-Dimethylbenzyl)-5,6-difluoro-1H-benzimidazol-2-yl]phenoxy}acetamide], the IC50 in assay [1] was > 10 µM; in assay [2], 0.01 to 1 µM.

In the case of `Cc1cc(C)c(Cn2c(-c3ccccc3OCC(N)=O)nc3ccc(F)cc32)c(C)c1` [Compound A6, 2-{2-[6-Fluoro-1-(2,4,6-trimethylbenzyl)-1H-benzimidazol-2-yl]phenoxy}acetamide], the 50% inhibitory concentration (IC50) in assay [1] and in assay [2] was > 10 µM each time.

Regarding `Cc1ccccc1Cn1c(-c2ccccc2OCC(N)=O)nc2ccccc21` [Compound A7, 2-{2-[1-(2-Methylbenzyl)-1H-benzimidazol-2-yl]-phenoxy}acetamide], the half-inhibitory concentration (IC50) is > 10 µM in assay [1] and 1 to 10 µM in assay [2].

On to `NC(=O)COc1ccccc1-c1nc2ccccc2n1Cc1ccccc1` [Compound A8, 2-[2-(1-Benzyl-1H-benzimidazol-2-yl)phenoxy]-acetamide], for which the half-maximal inhibitory concentration (IC50) in assay [1] and in assay [2] was > 10 µM throughout.

Regarding `NC(=O)COc1ccccc1-c1nc2ccccc2n1Cc1c(F)cccc1F` [Compound A9, 2-{2-[1-(2,6-Difluorobenzyl)-1H-benzimidazol-2-yl]phenoxy}acetamide], the IC50 is > 10 µM in assay [1] and 1 to 10 µM in assay [2].

In the case of `Cc1cccc(C)c1Cn1c(-c2cccc(F)c2OCC(N)=O)nc2ccccc21` [Compound A10, 2-{2-[1-(2,6-Dimethylbenzyl)-1H-benzimidazol-2-yl]-6-fluorophenoxy}acetamide], the IC50 in assay [1] is > 10 µM; in assay [2], 0.01 to 1 µM.

On to `COc1cccc(-c2nc3ccccc3n2Cc2c(C)cccc2C)c1OCC(N)=O` [Compound A11, 2-{2-[1-(2,6-Dimethylbenzyl)-1H-benzimidazol-2-yl]-6-methoxyphenoxy}acetamide], for which the half-inhibitory concentration (IC50) in assay [2] was in the range of 1 to 10 µM.

Consider `Cc1cccc(C)c1Cn1c(-c2cccc(C)c2OCC(N)=O)nc2ccccc21` [Compound A12, 2-{2-[1-(2,6-Dimethylbenzyl)-1H-benzimidazol-2-yl]-6-methylphenoxy}acetamide], for which the values for the half-maximal inhibitory concentration (IC50) in assay [1] and in assay [2] were > 10 µM and 1 to 10 µM, respectively.

On to `COc1ccc(-c2nc3ccccc3n2Cc2c(C)cccc2C)c(OCC(N)=O)c1` [Compound A13, 2-{2-[1-(2,6-Dimethylbenzyl)-1H-benzimidazol-2-yl]-5-methoxyphenoxy}acetamide], for which the 50% inhibitory concentration (IC50) in assay [1] is > 10 µM; in assay [2] it was 1 to 10 µM.

As to `Cc1ccc(-c2nc3ccccc3n2Cc2c(C)cccc2C)c(OCC(N)=O)c1` [Compound A14, 2-{2-[1-(2,6-Dimethylbenzyl)-1H-benzimidazol-2-yl]-5-methylphenoxy}acetamide], the IC50 is > 10 µM in assay [1] and 0.01 to 1 µM in assay [2].

Turning to `COc1cccc(OCC(N)=O)c1-c1nc2ccccc2n1Cc1c(C)cccc1C` [Compound A15, 2-{2-[1-(2,6-Dimethylbenzyl)-1H-benzimidazol-2-yl]-3-methoxyphenoxy}acetamide], the half-maximal inhibitory concentration (IC50) in assay [1] is > 10 µM; in assay [2], 0.01 to 1 µM.

In the case of `Cc1cccc(C)c1Cn1c(-c2ncccc2OCC(N)=O)nc2ccccc21` [Compound A16, 2-{2-[1-(2,6-Dimethylbenzyl)-1H-benzimidazol-2-yl]pyridin-3-yloxy}acetamide], in assay [2], the IC50 is > 10 µM.

With `Cc1cccc(C)c1Cn1c(-c2ccc(F)cc2OCC(N)=O)nc2ccccc21` [Compound A17, 2-{2-[1-(2,6-Dimethylbenzyl)-1H-benzimidazol-2-yl]-5-fluorophenoxy}acetamide], the IC50 in assay [1] was > 10 µM; in assay [2], 0.01 to 1 µM.

Regarding `NC(=O)COc1ccccc1-c1nc2cc(Cl)ccc2n1Cc1c(Cl)cccc1Cl` [Compound A18, 2-{2-[5-Chloro-1-(2,6-dichlorobenzyl)-1H-benzimidazol-2-yl]phenoxy}acetamide], the IC50 in assay [1] and in assay [2] was > 10 µM in each case.

For `NC(=O)COc1ccccc1-c1nc2cc(F)ccc2n1Cc1c(Cl)cccc1Cl` [Compound A19, 2-{2-[1-(2,6-Dichlorobenzyl)-5-fluoro-1H-benzimidazol-2-yl]phenoxy}acetamide], the IC50 is > 10 µM in assay [1] and 1 to 10 µM in assay [2].

Take `CNc1nnc(-c2ccccc2-c2nc3ccccc3n2Cc2c(C)cccc2C)o1` [Compound A31]: the IC50 in assay [2] is 0.01 to 1 µM.

The values are drawn from patent US8119675B2, “Benzimidazole derivatives” (Merck Patent GmbH, priority 2007, dated 2012).
